Laboratory results as given in patent US4731109A, “Herbicidal 2-haloacetanilides” (Monsanto Company, priority 1982, dated 1988).

Tests used:
Type in all cases: in vivo
Quackgrass = test: Greenhouse pre-emergence GR15/GR85 selectivity test
Description: (§1) A good grade of top soil is placed in aluminum pans and compacted to a depth of three-eighths to one-half inch from the top of the pan. On the top of the soil is placed a number of seeds or vegetative propagules of various plant species. The soil required to level fill the pans after seeding or adding vegetative propagules is weighed into a pan. The soil and a known amount of the active ingredient applied in a solvent or as a wettable powder suspension are thoroughly mixed, and used to cover the prepared pans. […] As an alternative procedure, the overhead irrigation may be omitted. Observations are made about 2-3 weeks after seeding and treatment.
(§2) A further guide to the effectiveness of a chemical as a selective herbicide is the "selectivity factor" ("SF") for a herbicide in given crops and weeds. The selectivity factor is a measure of the relative degree of crop safety and weed injury and is expressed in terms of the GR15 /GR85 ratio, i.e., the GR15 rate for the crop divided by the GR85 rate for the weed, both rates in kg/ha (lb/A). In the tables below, selectivity factors are shown in parenthesis following the GR85 rate for each weed; the symbol "NS" indicates "non-selective". Marginal or undetermined selectivity is indicated by a dash (--).
(§3) These weeds are commonly associated with such major crops as corn and soybeans. […] The test procedure was the same as described for Tables II and III but modified by the application of an initial overhead irrigation equivalent to 1/4" (0.64 cm) rainfall; subsequent watering was accomplished by subirrigation. "NS" means non-selective within the test limits.
(§4) Unless otherwise noted; greenhouse tests in Table VI and in other tables below involved herbicide treatments by soil incorporation and an initial overhead irrigation followed by subirrigation as described above.

Yellow Nutsedge = test: as above
Description: as §1, §2, §3, §4

cotton = test: as above; details: Table XII
Description: A good grade of top soil is placed in aluminum pans and compacted to a depth of three-eighths to one-half inch from the top of the pan. On the top of the soil is placed a number of seeds or vegetative propagules of various plant species. The soil required to level fill the pans after seeding or adding vegetative propagules is weighed into a pan. The soil and a known amount of the active ingredient applied in a solvent or as a wettable powder suspension are thoroughly mixed, and used to cover the prepared pans. After treatment, the pans are given an initial overhead irrigation of eater, equivalent to one-fourth inch (0.64 cm) rainfall, then watered by subirrigation as need to give adequate moisture for germination and growth. As an alternative procedure, the overhead irrigation may be omitted. Observations are made about 2-3 weeks after seeding and treatment.
In the discussion and tables of data below, reference is made to herbicide application rates symbolized as "GR15 " and "GR85 "; these rates are given in kilograms per hectare (kg/ha) which are convertible into pounds per acre (lbs/A) by dividing the kg/ha rate by 1.12.
as §2
Additionally, pre-emergence herbicidal data from other tests have established that compounds according to this invention also selectively suppress quackgrass, yellow nutsedge and/or other weeds in one or more of the crops cotton, peanuts, bush beans and/or rape. For example, in Table VI are presented data showing the herbicidal selectivity of the compounds of Examples 1 and 2 against quackgrass in rape and snap beans. Unless otherwise noted; greenhouse tests in Table VI and in other tables below involved herbicide treatments by soil incorporation and an initial overhead irrigation followed by subirrigation as described above.
In one multi-crop test in the greenhouse, the compounds of Examples 1, 9, and 10 were tested against yellow nutsedge in cotton, soybeans, corn and rice; each compound was non-selective with respect to yellow nutsedge in rice. However, markedly high selectivities for yellow nutsedge in cotton, soybeans and corn were shown for each of the compounds in the test; the respective GR15 and GR85 rates for these compounds are shown in Table XII selectivity factors are shown in parenthesis after each crop.

soybeans = test: Herbicidal effect in a variety of soil types
[1] = quackgrass in corn, Table IV, Replicate #1
[2] = quackgrass in corn, Table IV, Replicate #2
[3] = quackgrass in snapbeans, Table VI
[4] = quackgrass in soybeans, Table IV, Replicate #1
[5] = quackgrass in soybeans, Table IV, Replicate #2
[6] = yellow nutsedge in corn, Table IV, Replicate #1
[7] = yellow nutsedge in corn, Table IV, Replicate #2
[8] = yellow nutsedge in soybeans, Table IV, Replicate #1
[9] = yellow nutsedge in soybeans, Table IV, Replicate #2
[10] = Drummer silty clay, Table XVII A

Compound: CCOCN(C(=O)CCl)c1c(C)cccc1C(F)(F)F [Example 1, N-(ethoxymethyl)-2'-trifluoromethyl-6'-methyl-2-chloroacetanilide]
- GR85 (Quackgrass; Table IV, Replicate #1): 0.18 Kg/Ha
- GR85 (Quackgrass; Table IV, Replicate #2): 0.16 Kg/Ha
- GR85 (Quackgrass; Table V): 0.08 Kg/Ha
- selectivity factors relative to prior art compounds (Quackgrass; Table V, quackgrass and yellow nutsedge in corn and soybeans): exceedingly higher selectivity factors
- GR85 Rate (Quackgrass; Table VI): 0.12 Kg/Ha
- GR85 (Quackgrass; Table XIII): 0.07 Kg/Ha
- selectivity against quackgrass in wheat (Quackgrass; in wheat): non-selective
- selectivity factor (GR15/GR85) (Quackgrass; [1]): 4
- selectivity factor (GR15/GR85) (Quackgrass; [2]): 5
- selectivity factor (GR15/GR85) (Quackgrass; quackgrass in corn, Table V): 27.5
- selectivity factor (GR15/GR85) (Quackgrass; quackgrass in corn, Table XIII): 10
- selectivity factor (GR15/GR85) (Quackgrass; quackgrass in rape, Table VI): 7
- selectivity factor (GR15/GR85) (Quackgrass; [3]): 7
- selectivity factor (GR15/GR85) (Quackgrass; [4]): 17
- selectivity factor (GR15/GR85) (Quackgrass; [5]): 14
- selectivity factor (GR15/GR85) (Quackgrass; quackgrass in soybeans, Table V): 35
- selectivity factor (GR15/GR85) (Quackgrass; quackgrass in soybeans, Table XIII): 11.6
- GR85 (Yellow Nutsedge; Table IV, Replicate #1): 0.20 Kg/Ha
- GR85 (Yellow Nutsedge; Table IV, Replicate #2): 0.12 Kg/Ha
- GR85 (Yellow Nutsedge; Table V): 0.10 Kg/Ha
- GR85 (Yellow Nutsedge; Table XII): 0.24 Kg/Ha
- selectivity with respect to yellow nutsedge in rice (Yellow Nutsedge; in rice): non-selective
- selectivity factor (GR15/GR85) (Yellow Nutsedge; [6]): 4
- selectivity factor (GR15/GR85) (Yellow Nutsedge; [7]): 6
- selectivity factor (GR15/GR85) (Yellow Nutsedge; yellow nutsedge in corn, Table V): 22
- selectivity factor (GR15/GR85) (Yellow Nutsedge; yellow nutsedge in corn, Table XII): 2.9
- selectivity factor (GR15/GR85) (Yellow Nutsedge; yellow nutsedge in cotton, Table XII): 8
- selectivity factor (GR15/GR85) (Yellow Nutsedge; [8]): 15
- selectivity factor (GR15/GR85) (Yellow Nutsedge; [9]): 18
- selectivity factor (GR15/GR85) (Yellow Nutsedge; yellow nutsedge in soybeans, Table V): 28
- selectivity factor (GR15/GR85) (Yellow Nutsedge; yellow nutsedge in soybeans, Table XII): 3.6
- GR15 (cotton): 2.0 Kg/Ha
- GR15 (soybeans; [10]): > 2.2 Kg/Ha
- GR15 (soybeans; Drummer silty clay, Table XVII B): 2.2 Kg/Ha
- GR15 (soybeans; Drummer silty clay, Table XVII C): 2.0 Kg/Ha
- GR15 (soybeans; Florida muck, Table XVII A): > 2.2 Kg/Ha
- GR15 (soybeans; Florida muck, Table XVII B): 2.2 Kg/Ha
- GR15 (soybeans; Florida muck, Table XVII C): > 2.2 Kg/Ha
- GR15 (soybeans; Florida sand, Table XVII A): 2.0 Kg/Ha
- GR15 (soybeans; Florida sand, Table XVII B): 2.2 Kg/Ha
- GR15 (soybeans; Ray silt loam, Table XVII A): 1.1 Kg/Ha
- GR15 (soybeans; Ray silt loam, Table XVII B): 2.2 Kg/Ha
- GR15 (soybeans; Ray silt loam, Table XVII C): 2.0 Kg/Ha
- GR15 (soybeans; Sarpy silty clay, Table XVII A): > 2.2 Kg/Ha
- GR15 (soybeans; Sarpy silty clay, Table XVII B): 2.2 Kg/Ha
- GR15 (soybeans; Sarpy silty clay, Table XVII C): > 2.2 Kg/Ha
- GR15 (soybeans; Wabash silty clay, Table XVII B): 2.2 Kg/Ha
- GR15 (soybeans; Wabash silty clay, Table XVII C): 2.2 Kg/Ha

Compound: CC(C)OCN(C(=O)CCl)c1ccccc1C(F)(F)F [Example 2, N--(isopropoxymethyl)-2'-trifluoromethyl-2-chloroacetanilide]
- GR85 (Quackgrass; Table IV, Replicate #1): 0.26 Kg/Ha
- GR85 (Quackgrass; Table IV, Replicate #2): 0.22 Kg/Ha
- GR85 Rate (Quackgrass; Table VI): 0.28 Kg/Ha
- selectivity factor (GR15/GR85) (Quackgrass; [1]): 12
- selectivity factor (GR15/GR85) (Quackgrass; [2]): 3.5
- selectivity factor (GR15/GR85) (Quackgrass; quackgrass in rape, Table VI): 7
- selectivity factor (GR15/GR85) (Quackgrass; [3]): 8
- selectivity factor (GR15/GR85) (Quackgrass; [4]): 6.5
- selectivity factor (GR15/GR85) (Quackgrass; [5]): 7.5
- GR85 (Yellow Nutsedge; Table IV, Replicate #1): 0.17 Kg/Ha
- GR85 (Yellow Nutsedge; Table IV, Replicate #2): 0.20 Kg/Ha
- selectivity factor (GR15/GR85) (Yellow Nutsedge; [6]): 18
- selectivity factor (GR15/GR85) (Yellow Nutsedge; [7]): 4
- selectivity factor (GR15/GR85) (Yellow Nutsedge; [8]): 10
- selectivity factor (GR15/GR85) (Yellow Nutsedge; [9]): 8.5
- GR15 (soybeans; [10]): > 2.2 Kg/Ha
- GR15 (soybeans; Florida muck, Table XVII A): > 2.2 Kg/Ha
- GR15 (soybeans; Florida sand, Table XVII A): 1.7 Kg/Ha
- GR15 (soybeans; Ray silt loam, Table XVII A): 2.2 Kg/Ha
- GR15 (soybeans; Sarpy silty clay, Table XVII A): > 2.2 Kg/Ha
